In PubChem BioAssay (NCI):
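GI50 = concentration required for 50% inhibition of growth. TGI: total growth inhibition.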

Experiments:
Assay in all cases: inhibition of tumour cell growth, NCI panel, 384-well format
SK-MEL-28 melanoma = system: SK-MEL-28 melanoma
HOP-62 NSCLC = system: HOP-62 NSCLC
OVCAR-4 ovarian = system: OVCAR-4 ovarian
HS 578T breast = system: HS 578T breast
M14 melanoma = system: M14 melanoma
A549 NSCLC = system: A549 NSCLC
SK-OV-3 ovarian = system: SK-OV-3 ovarian
HCT-116 colon = system: HCT-116 colon
PC-3 prostate = system: PC-3 prostate
MDA-MB-468 breast = system: MDA-MB-468 breast
OVCAR-5 ovarian = system: OVCAR-5 ovarian
CAKI-1 renal = system: CAKI-1 renal
KM12 colon = system: KM12 colon
MDA-MB-435 melanoma = system: MDA-MB-435 melanoma
SF-268 CNS = system: SF-268 CNS
TK-10 renal = system: TK-10 renal
SNB-19 CNS = system: SNB-19 CNS
SW-620 colon = system: SW-620 colon
IGROV1 ovarian = system: IGROV1 ovarian
UO-31 renal = system: UO-31 renal
RXF 393 renal = system: RXF 393 renal
OVCAR-8 ovarian = system: OVCAR-8 ovarian
SN12C renal = system: SN12C renal
EKVX NSCLC = system: EKVX NSCLC
SK-MEL-5 melanoma = system: SK-MEL-5 melanoma
NCI-H226 lung = system: NCI-H226 lung
NCI-H322M lung = system: NCI-H322M lung
SK-MEL-2 melanoma = system: SK-MEL-2 melanoma
SF-295 CNS = system: SF-295 CNS
NCI-H522 lung = system: NCI-H522 lung
BT-549 breast = system: BT-549 breast
U251 glioblastoma = system: U251 glioblastoma
MOLT-4 leukemia = system: MOLT-4 leukemia
786-0 renal = system: 786-0 renal
MALME-3M melanoma = system: MALME-3M melanoma
UACC-257 melanoma = system: UACC-257 melanoma
HL-60(TB) leukemia = system: HL-60(TB) leukemia
HOP-92 NSCLC = system: HOP-92 NSCLC
ACHN renal = system: ACHN renal
SF-539 CNS = system: SF-539 CNS
HT29 colon = system: HT29 colon
UACC-62 melanoma = system: UACC-62 melanoma
COLO 205 colon = system: COLO 205 colon
HCT-15 colon = system: HCT-15 colon
K-562 leukemia = system: K-562 leukemia
DU-145 prostate = system: DU-145 prostate
A498 renal = system: A498 renal
OVCAR-3 ovarian = system: OVCAR-3 ovarian
SNB-75 CNS = system: SNB-75 CNS
MDA-MB-231 breast = system: MDA-MB-231 breast
NCI-H23 lung = system: NCI-H23 lung
SR leukemia = system: SR leukemia
T-47D breast = system: T-47D breast
MCF7 breast = system: MCF7 breast

`O=C(NCCc1ccccc1)C(c1csc2ccccc12)N(C(=O)CCl)c1ccc(-c2cnco2)cc1` (configuration not stated) was tested, and the GI50 (SK-MEL-28 melanoma) was 1.43 µM, the TGI (SK-MEL-28 melanoma) was 2.74 µM and the GI50 (HOP-62 NSCLC) was 0.0237 µM. The TGI (HOP-62 NSCLC) was 0.0684 µM, the GI50 (OVCAR-4 ovarian) was 0.0168 µM and the TGI (OVCAR-4 ovarian) was 0.0308 µM. It also gave a GI50 (HS 578T breast) of 0.113 µM, a TGI (HS 578T breast) of 0.238 µM and a GI50 (M14 melanoma) of 0.138 µM. It also gave a TGI (M14 melanoma) of 0.288 µM, a GI50 (A549 NSCLC) of 0.263 µM and a TGI (A549 NSCLC) of 1.58 µM. For the same compound, the GI50 (SK-OV-3 ovarian) was 0.197 µM, the TGI (SK-OV-3 ovarian) was 0.394 µM and the GI50 (HCT-116 colon) was 0.287 µM. The TGI (HCT-116 colon) was 1.03 µM, the GI50 (PC-3 prostate) was 0.11 µM and the TGI (PC-3 prostate) was 0.245 µM. For the same compound, the GI50 (MDA-MB-468 breast) was 0.0215 µM, the TGI (MDA-MB-468 breast) was 0.0881 µM and the GI50 (OVCAR-5 ovarian) was 0.349 µM. It also gave a TGI (OVCAR-5 ovarian) of 1.31 µM, a GI50 (CAKI-1 renal) of under 0.01 µM and a TGI (CAKI-1 renal) of 0.019 µM. It also gave a GI50 (KM12 colon) of 0.483 µM, a TGI (KM12 colon) of 1.64 µM and a GI50 (MDA-MB-435 melanoma) of 0.432 µM. The TGI (MDA-MB-435 melanoma) was 1.68 µM, the GI50 (SF-268 CNS) was 0.0703 µM and the TGI (SF-268 CNS) was 0.198 µM. For the same compound, the GI50 (TK-10 renal) was 0.0186 µM, the TGI (TK-10 renal) was 0.0364 µM and the GI50 (SNB-19 CNS) was 1.76 µM. The TGI (SNB-19 CNS) was 3.16 µM, the GI50 (SW-620 colon) was 0.151 µM and the TGI (SW-620 colon) was 0.289 µM. The GI50 (IGROV1 ovarian) was 0.0182 µM, the TGI (IGROV1 ovarian) was 0.034 µM and the GI50 (UO-31 renal) was under 0.01 µM. For the same compound, the GI50 (RXF 393 renal) was 0.0108 µM, the TGI (RXF 393 renal) was 0.0232 µM and the GI50 (OVCAR-8 ovarian) was 0.0196 µM. It also gave a TGI (OVCAR-8 ovarian) of 0.0566 µM, a GI50 (SN12C renal) of 1.04 µM and a TGI (SN12C renal) of 2.22 µM. The GI50 (EKVX NSCLC) was 0.0157 µM, the TGI (EKVX NSCLC) was 0.0321 µM and the GI50 (SK-MEL-5 melanoma) was 0.358 µM. The TGI (SK-MEL-5 melanoma) was 1.68 µM, the GI50 (NCI-H226 lung) was 0.193 µM and the TGI (NCI-H226 lung) was 0.724 µM. It also gave a GI50 (NCI-H322M lung) of 1.68 µM, a TGI (NCI-H322M lung) of 3.05 µM and a GI50 (SK-MEL-2 melanoma) of 0.0297 µM. It also gave a TGI (SK-MEL-2 melanoma) of 0.102 µM, a GI50 (SF-295 CNS) of 0.131 µM and a TGI (SF-295 CNS) of 0.261 µM. For the same compound, the GI50 (NCI-H522 lung) was under 0.01 µM, the TGI (NCI-H522 lung) was 0.0151 µM and the GI50 (BT-549 breast) was 0.0376 µM. The TGI (BT-549 breast) was 0.131 µM, the GI50 (U251 glioblastoma) was 0.101 µM and the TGI (U251 glioblastoma) was 0.239 µM. The GI50 (MOLT-4 leukemia) was 0.0202 µM, the TGI (MOLT-4 leukemia) was 0.0364 µM and the GI50 ([…]-0 renal) was 0.0165 µM. It also gave a TGI (786-0 renal) of 0.0332 µM, a GI50 (MALME-3M melanoma) of 0.0564 µM and a TGI (MALME-3M melanoma) of 0.18 µM. For the same compound, the GI50 (UACC-257 melanoma) was 0.121 µM, the TGI (UACC-257 melanoma) was 0.412 µM and the GI50 (HL-60(TB) leukemia) was 0.0214 µM. For the same compound, the TGI (HL-60(TB) leukemia) was 0.0364 µM, the GI50 (HOP-92 NSCLC) was 0.0169 µM and the TGI (HOP-92 NSCLC) was 0.0311 µM. It also gave a GI50 (ACHN renal) of 0.016 µM, a TGI (ACHN renal) of 0.03 µM and a GI50 (SF-539 CNS) of 0.0165 µM. It also gave a TGI (SF-539 CNS) of 0.0349 µM, a GI50 (HT29 colon) of 0.127 µM and a TGI (HT29 colon) of 0.273 µM. The GI50 (UACC-62 melanoma) was 0.018 µM, the TGI (UACC-62 melanoma) was 0.034 µM and the GI50 (COLO 205 colon) was 1.46 µM. For the same compound, the TGI (COLO 205 colon) was 2.78 µM, the GI50 (HCT-15 colon) was 0.0776 µM and the TGI (HCT-15 colon) was 0.216 µM. For the same compound, the GI50 (K-562 leukemia) was 0.0784 µM, the TGI (K-562 leukemia) was 0.212 µM and the GI50 (DU-145 prostate) was 0.062 µM. It also gave a TGI (DU-145 prostate) of 1.4 µM, a GI50 (A498 renal) of 0.104 µM and a TGI (A498 renal) of 0.222 µM. The GI50 (OVCAR-3 ovarian) was 0.145 µM, the TGI (OVCAR-3 ovarian) was 0.314 µM and the GI50 (SNB-75 CNS) was 0.0191 µM. The TGI (SNB-75 CNS) was 0.038 µM, the GI50 (MDA-MB-231 breast) was 0.0199 µM and the TGI (MDA-MB-231 breast) was 0.0433 µM. The GI50 (NCI-H23 lung) was 0.0165 µM, the TGI (NCI-H23 lung) was 0.035 µM and the GI50 (SR leukemia) was 0.0176 µM. For the same compound, the TGI (SR leukemia) was 0.0319 µM, the GI50 (T-47D breast) was 0.0377 µM and the TGI (T-47D breast) was 0.148 µM. For the same compound, the GI50 (MCF7 breast) was 0.342 µM and the TGI (MCF7 breast) was 1.48 µM.
